According to US20250122174A1 (Shenzhen Yuanli Shenwan Innovative Medicine Co., Ltd., priority 2022, published 2025):

target: HPK1 (Homo sapiens (Human), UniProt Q92918); test: HPK1 Inhibition Assay (ADP-Glo kinase assay); type: biochemical; settings: ATP 10 μM
Outline: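 ADP-Glo luminescence read-out after 1 h room-temperature kinase reaction with 10 μM ATP and 0.1 μg/ml MBP. Recombinant human HPK1 at 7.5 ng/μl; buffer 40 mM Tris pH 7.5, 20 mM MgCl2. Compounds serially diluted 5-fold over 10 points from 10 mM DMSO stock.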

Sequence of HPK1 (Q92918 1-346 limits assumed): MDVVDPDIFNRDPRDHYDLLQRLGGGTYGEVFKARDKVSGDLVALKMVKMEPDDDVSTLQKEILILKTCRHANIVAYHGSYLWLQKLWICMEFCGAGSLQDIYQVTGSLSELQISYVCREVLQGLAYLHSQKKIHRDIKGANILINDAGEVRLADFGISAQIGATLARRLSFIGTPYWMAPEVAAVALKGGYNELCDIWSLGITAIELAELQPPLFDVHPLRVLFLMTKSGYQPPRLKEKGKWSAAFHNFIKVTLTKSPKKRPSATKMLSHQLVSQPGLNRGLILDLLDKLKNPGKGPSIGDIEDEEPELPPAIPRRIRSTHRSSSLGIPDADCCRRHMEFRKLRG

IC50, < 100 nM:
CC(C)c1nc2c(N3CCC4(CCNC4)C3)c(NC(=O)c3ccc(=O)n(-c4c(F)cccc4F)n3)ccc2n1C (centres unmarked) [Example 136, 1-(2,6-difluorophenyl)-N-(2-isopropyl-1-methyl-4-(2,7-diazaspiro[4.4]nonan-2-yl)-1H-benzo[d]imidazol-5-yl)-6-oxo-1,6-dihydropyridazine-3-carboxamide]
CC(C)c1nc2c(N3C[C@H]4CNC[C@H]4C3)c(NC(=O)c3ccc(=O)n(-c4c(F)cccc4F)n3)ccc2n1C [Example 137, 1-(2,6-difluorophenyl)-N-(4-((3aR,6aS)-hexahydropyrrolo[3,4-c]pyrrol-2(1H)-yl)-2-isopropyl-1-methyl-1H-benzo[d]imidazol-5-yl)-6-oxo-1,6-dihydropyridazine-3-carboxamide]
CC(C)c1nc2c(N3CC[C@@](C)(O)C3)c(NC(=O)c3ccc(=O)n(-c4c(F)cccc4F)n3)ccc2n1C [Example 140, (R)-1-(2,6-difluorophenyl)-N-(4-(3-hydroxy-3-methylpyrrolidin-1-yl)-2-isopropyl-1-methyl-1H-benzo[d]imidazol-5-yl)-6-oxo-1,6-dihydropyridazine-3-carboxamide]
CC(C)c1nc2c(N3CC(F)(F)C[C@H]3CN)c(NC(=O)c3ccc(=O)n(-c4c(F)cccc4F)n3)ccc2n1C [Example 141, (S)-N-(4-(2-(aminomethyl)-4,4-difluoropyrrolidin-1-yl)-2-isopropyl-1-methyl-1H-benzo[d]imidazol-5-yl)-1-(2,6-difluorophenyl)-6-oxo-1,6-dihydropyridazine-3-carboxamide]
CC(C)c1nc2c(N3CC(N)C(O)C3)c(NC(=O)c3ccc(=O)n(-c4c(F)cccc4F)n3)ccc2n1C (centres unmarked) [Example 142, N-(4-(3-amino-4-hydroxypyrrolidin-1-yl)-2-isopropyl-1-methyl-1H-benzo[d]imidazol-5-yl)-1-(2,6-difluorophenyl)-6-oxo-1,6-dihydropyridazine-3-carboxamide]
CC(C)c1nc2c(N3CC[C@@H](N)C3)c(NC(=O)c3ccc(=O)n(-c4c(F)cccc4F)n3)cc(F)c2n1C [Example 143, (R)—N-(4-(3-aminopyrrolidin-1-yl)-7-fluoro-2-isopropyl-1-methyl-1H-benzo[d]imidazol-5-yl)-1-(2,6-difluorophenyl)-6-oxo-1,6-dihydropyridazine-3-carboxamide]
CC(C)c1nc2c(N3CC(F)(F)C[C@H]3CN)c(NC(=O)c3ccc(=O)n(-c4c(F)cccc4F)n3)cc(F)c2n1C [Example 144, (S)-N-(4-(2-(aminomethyl)-4,4-difluoropyrrolidin-1-yl)-7-fluoro-2-isopropyl-1-methyl-1H-benzo[d]imidazol-5-yl)-1-(2,6-difluorophenyl)-6-oxo-1,6-dihydropyridazine-3-carboxamide]
CC(C)c1nc2c(N3C[C@@H]4[C@H](N)[C@@H]4C3)c(NC(=O)c3ccc(=O)n(-c4c(F)cccc4F)n3)cc(F)c2n1C [Example 145, N-(4-((1R,5S,6r)-6-amino-3-azabicyclo[3.1.0]hexane-3-yl)-7-fluoro-2-isopropyl-1-methyl-1H-benzo[d]imidazol-5-yl)-1-(2,6-difluorophenyl)-6-oxo-1,6-dihydropyridazine-3-carboxamide]
Cn1c(C2(C(F)(F)F)CC2)nc2c(N3CC[C@@H](N)C3)c(NC(=O)c3ccc(=O)n(-c4c(F)cccc4F)n3)ccc21 [Example 146, (R)—N-(4-(3-aminopyrrolidin-1-yl)-1-methyl-2-(1-(trifluoromethyl)cyclopropyl)-1H-benzo[d]imidazol-5-yl)-1-(2,6-difluorophenyl)-6-oxo-1,6-dihydropyridazine-3-carboxamide]
Cn1c(C2(C(F)(F)F)CC2)nc2c(N3C[C@H](N)C(C)(C)C3)c(NC(=O)c3ccc(=O)n(-c4c(F)cccc4F)n3)ccc21 [Example 147, (R)-N-(4-(4-amino-3,3-dimethylpyrrolidin-1-yl)-1-methyl-2-(1-(trifluoromethyl)cyclopropyl)-1H-benzo[d]imidazol-5-yl)-1-(2,6-difluorophenyl)-6-oxo-1,6-dihydropyridazine-3-carboxamide]
C[C@@H]1CN(c2c(NC(=O)c3ccc(=O)n(-c4c(F)cccc4F)n3)ccc3c2nc(C2(C(F)(F)F)CC2)n3C)C[C@@H]1N [Example 148, N-(4-((3R,4R)-3-amino-4-methylpyrrolidin-1-yl)-1-methyl-2-(1-(trifluoromethyl)cyclopropyl)-1H-benzo[d]imidazol-5-yl)-1-(2,6-difluorophenyl)-6-oxo-1,6-dihydropyridazine-3-carboxamide]
Cn1c(C2(C(F)(F)F)CC2)nc2c(N3C[C@H](N)C4(CC4)C3)c(NC(=O)c3ccc(=O)n(-c4c(F)cccc4F)n3)ccc21 [Example 149, (R)-N-(4-(7-amino-5-azaspiro[2.4]heptan-5-yl)-1-methyl-2-(1-(trifluoromethyl)cyclopropyl)-1H-benzo[d]imidazol-5-yl)-1-(2,6-difluorophenyl)-6-oxo-1,6-dihydropyridazine-3-carboxamide]
Cc1nc2c(N3C[C@H](N)C(C)(C)C3)c(NC(=O)c3ccc(=O)n(-c4c(F)cccc4F)n3)ccc2n1[C@H]1CCOC1 [Example 150, N-(4-((R)-4-amino-3,3-dimethylpyrrolidin-1-yl)-2-methyl-1-((S)-tetrahydrofuran-3-yl)-1H-benzo[d]imidazol-5-yl)-1-(2,6-difluorophenyl)-6-oxo-1,6-dihydropyridazine-3-carboxamide]
Cc1nc2c(N3C[C@H](N)C4(CC4)C3)c(NC(=O)c3ccc(=O)n(-c4c(F)cccc4F)n3)ccc2n1C1CCOCC1 [Example 151, 1-(2,6-difluorophenyl)-N-(4-[(7R)-7-amino-5-azaspiro[2.4]heptan-5-yl]-2-methyl-1-(3,4,5,6-tetrahydro-2H-pyran-4-yl)benzo[d]imidazol-5-yl)-6-oxo-1,2-diazine-3-carboxamide]
Cc1nc2c(N3C[C@H](N)C4(CC4)C3)c(NC(=O)c3ccc(=O)n(-c4c(F)cccc4F)n3)ccc2n1[C@H]1CCOC1 [Example 152, N-(4-((R)-7-amino-5-azaspiro[2.4]heptan-5-yl)-2-methyl-1-((S)-tetrahydrofuran-3-yl)-1H-benzo[d]imidazol-5-yl)-1-(2,6-difluorophenyl)-6-oxo-1,6-dihydropyridazine-3-carboxamide]
C[C@@H]1CN(c2c(NC(=O)c3ccc(=O)n(-c4c(F)cccc4F)n3)ccc3c2ncn3C2CCOCC2)C[C@@H]1N [Example 153, N-(4-((3R,4R)-3-amino-4-methylpyrrolidin-1-yl)-1-(tetrahydro-2H-pyran-4-yl)-1H-benzo[d]imidazol-5-yl)-1-(2,6-difluorophenyl)-6-oxo-1,6-dihydropyridazine-3-carboxamide]
CC(C)n1cnc2c(N3C[C@@H](C)[C@@H](N)C3)c(NC(=O)c3ccc(=O)n(-c4c(F)cccc4F)n3)ccc21 [Example 154, N-(4-((3R,4R)-3-amino-4-methylpyrrolidin-1-yl)-1-isopropyl-1H-benzo[d]imidazol-5-yl)-1-(2,6-difluorophenyl)-6-oxo-1,6-dihydropyridazine-3-carboxamide]
